From patent US20210346288A1, “PHARMACEUTICAL FORMULATION CONTAINING ACTIVE METABOLITES OF REMDESIVIR FOR INHALATION” (priority 2020, published 2021)

What was measured:
[1] = Influence of pH and pH adjuster on stability of RV-MP solution (HPLC impurities, 60° C./75% RH); format: physicochemical
Protocol: (§1) Remdesivir monophosphate disodium salt is the salt of nucleoside monophosphate. The stability of remdesivir monophosphate disodium salt (referred to as RV-MP) is highly dependent on the pH. Four samples were prepared, having pH 3.0, 4.0, 5.0, 6.0. 23 ml of purified water was adjusted to the target pH with hydrochloric acid. RV-MP according to the amounts provided in table 5 was added to the solution, and the resulting mixture was sonicated until completely dissolved. The resulting mixture was adjusted to the target pH with hydrochloric acid. Finally, purified water was added to provide a final weight of 25.0 g.
(§2) Impurities Detection Method: HPLC Detection Method • Column: YMC-triart C 18, 4.6*150 mm, S-5 μm, 12 nm; • Flow: 0.8 ml/min • Injection volume: […], • Column temperature: 40° C. • A: Weigh 2.7 g of sodium dihydrogen phosphate, add 1 L of purified water, stir to dissolve, and filter to obtain. • B: Methanol
as §1, with “The” for “Remdesivir monophosphate disodium salt is the salt of nucleoside monophosphate. The”, “Five” for “Four”, “3.2, 3.5, 3.8, 4.0.” for “4.0, 5.0, 6.0.”, “citric” for “hydrochloric”, “Table 10” for “table 5”
as §1, with “The” for “Remdesivir monophosphate disodium salt is the salt of nucleoside monophosphate. The”, “Five” for “Four”, “3.2, 3.5, 3.8, 4.0.” for “4.0, 5.0, 6.0.”, “HCl.” for “hydrochloric acid.”, “Table 16” for “table 5”, “Then the” for “The”

[2] = Strong degradation test under light conditions (HPLC impurities); format: physicochemical
Protocol: as §2
Sample 15: 60 mg RV_MP dissolved in 100 ml purified water.
The sample 15 was placed in light conditions, and the placement time was 2 hours, 4 hours, 6 hours, 24 hours, 48 hours, 72 hours, and the impurity detection method in Example 5 was used to detect the samples.
The impurity detection method of the present invention is the same as the impurity detection method in Example 5.

remdesivir monophosphate disodium salt [RV-MP]
Stability of RV-MP solution at 60° C. ([1]; 60° C.): unstable
Stability of RV-MP formulations ([1]; adjusting pH using HCl): stable at pH 3.0-4.0
pH of highest stability ([1]; adjusting pH using HCl, pH 3.0-6.0 tested): 3.0
Stability of resulting solution ([1]; using HCl to adjust the pH, compared with citric acid): more stable
Stability of resulting solution ([1]; using citric acid to adjust the pH, especially at pH3.0): unstable
Stability of RV-MP solution under light condition [2]: unstable
